# Target: T1, human A2a receptor (Homo sapiens, UniProt P29274)
# T1 construct: purchased Perkin-Elmer RBHA2AM400UA; host or cells: HEK293 cells (membranes)
# Test: A2a competition binding assay, Scintillation Proximity technology
# Conditions: membranes from HEK293 cells expressing human A2a receptor; Ki by Cheng-Prusoff equation
# Outline: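 SPA competition: 0.5 nM tritiated pyrazolotriazolopyrimidine ligand displaced by compound at 3000 to 0.15 nM, 1 h room temperature, human A2a HEK293 membranes pretreated with adenosine deaminase, PBS/10 mM MgCl2 buffer. CGS15943 1 μM defined non-specific binding; EC50 converted to Ki via Cheng-Prusoff.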
# T1 sequence (P29274 whole entry): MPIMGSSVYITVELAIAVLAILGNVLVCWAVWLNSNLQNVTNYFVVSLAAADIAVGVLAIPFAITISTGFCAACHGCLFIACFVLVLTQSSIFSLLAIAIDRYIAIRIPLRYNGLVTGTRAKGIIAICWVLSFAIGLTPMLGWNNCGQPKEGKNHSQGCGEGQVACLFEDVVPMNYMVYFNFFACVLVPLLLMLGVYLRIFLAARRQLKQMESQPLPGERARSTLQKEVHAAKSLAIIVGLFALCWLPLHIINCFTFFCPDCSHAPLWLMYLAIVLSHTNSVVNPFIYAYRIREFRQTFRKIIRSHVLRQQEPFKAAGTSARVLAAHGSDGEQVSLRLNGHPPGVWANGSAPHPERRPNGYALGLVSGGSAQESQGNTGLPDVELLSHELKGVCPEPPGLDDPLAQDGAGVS
row,SMILES,Ki
1,"Cc1nc(C(=O)NC2CCCN(CC(F)(F)F)C2)c(N)nc1-c1ncco1 (centres unmarked) [Ex-116, 3-amino-6-methyl-5-(1,3-oxazol-2-yl)-N-[1-(2,2,2-trifluoroethyl)piperidin-3-yl]pyrazine-2-carboxamide]",21.4 nM
2,"Cc1nc(C(=O)NC2CCCNC2)c(N)nc1-c1ncco1 (centres unmarked) [Ex-117, 3-amino-6-methyl-5-(1,3-oxazol-2-yl)-N-piperidin-3-ylpyrazine-2-carboxamide]",104 nM
3,"Cc1nc(C(=O)N[C@H]2CC[C@H](C(F)(F)F)CC2)c(N)nc1-c1ncco1 [Ex-118, 3-amino-6-methyl-5-(1,3-oxaozl-2-yl)-N-[trans-4-(trifluoromethyl)cyclohexyl] pyrazine-2-carboxamide]",31.7 nM
4,Cc1nc(C(=O)NCc2cccc(C(C)(C)O)n2)c(N)nc1-c1ncco1 [Ex-119],6.24 nM
5,"Cc1cn(C)c(CNC(=O)c2nc(C)c(-c3ncco3)nc2N)n1 [Ex-120, 3-amino-N-[(1,4-dimethyl-1H-imidazol-2-yl)methyl]-6-methyl-5-(1,3-oxazol-2-yl)pyrazine-2-carboxamide]",5.81 nM
6,"Cc1nc(C(=O)NCc2cccc(C(F)(F)F)n2)c(N)nc1-c1ncco1 [Ex-121, 3-amino-6-methyl-5-(1,3-oxazol-2-yl)-N-{[6-(trifluoromethyl)pyridin-2-yl]methyl}pyrazine-2-carboxamide]",3.18 nM
7,"COCc1cccc(CNC(=O)c2nc(C)c(-c3ncco3)nc2N)n1 [Ex-122, 3-amino-N-{[6-(methoxymethyl)pyridin-2-yl]methyl}-6-methyl-5-(1,3-oxazol-2-yl)pyrazine-2-carboxamide]",2.91 nM
8,"COCCNC(=O)c1nc(C)c(-c2ncco2)nc1N [Ex-123, 3-amino-N-(2-methoxyethyl)-6-methyl-5-(1,3-oxazol-2-yl)pyrazine-2-carboxamide]",17.4 nM
9,"COc1ncccc1CNC(=O)c1nc(C)c(-c2ncco2)nc1N [Ex-124, 3-amino-N-[(2-methoxypyridin-3-yl)methyl]-6-methyl-5-(1,3-oxazol-2-yl)pyrazine-2-carboxamide]",1.77 nM
10,"Cc1nc(C(=O)N2CCc3cccnc3C2)c(N)nc1-c1ncco1 [Ex-125, 3-(5,8-dihydro-1,7-naphthyridin-7(6H)-ylcarbonyl)-5-methyl-6-(1,3-oxazol-2-yl)pyrazin-2-amine]",18.8 nM
11,"Cc1nc(C(=O)NCc2ncc(C(F)(F)F)cn2)c(N)nc1-c1ncco1 [Ex-126, 3-amino-6-methyl-5-(1,3-oxazol-2-yl)-N-{[5-(trifluoromethyl)pyrimidin-2-yl]methyl}pyrazine-2-carboxamide]",83 nM
12,"Cc1nc(C(=O)NCc2nccn2C2CCC2)c(N)nc1-c1ncco1 [Ex-127, 3-amino-N-[(1-cyclobutyl-1H-imidazol-2-yl)methyl]-6-methyl-5-(1,3-oxazol-2-yl)pyrazine-2-carboxamide]",0.279 nM
13,"Cc1nc(C(=O)NCC2CC2)c(N)nc1-c1ncco1 [Ex-128, 3-amino-N-(cyclopropylmethyl)-6-methyl-5-(1,3,-oxazol-2-yl)pyrazine-2-carboxamide]",12.5 nM
14,"Cc1nc(C(=O)NCc2cc(F)ccc2O)c(N)nc1-c1ncco1 [Ex-129, 3-amino-N-(5-fluoro-2-hydroxybenzyl)-6-methyl-5-(1,3-oxazol-2-yl)pyrazine-2-carboxamide]",0.198 nM
15,"Cc1nc(C(=O)N[C@H]2c3ccccc3C[C@@H]2O)c(N)nc1-c1ncco1 [Ex-130, 3-amino-N-[(1S,2S)-2-hydroxy-2,3-dihydro-1H-inden-1-yl]-6-methyl-5-(1,3-oxazol-2-yl)pyrazine-2-carboxamide]",3.41 nM
16,"Cc1nc(C(=O)N2CCC2c2ccccc2)c(N)nc1-c1ncco1 (centres unmarked) [Ex-131, 5-methyl-6-(1,3-oxazol-2-yl)-3-[(2-phenylazetidin-1-yl)carbonyl]pyrazin-2-amine]",10.3 nM
17,"Cc1nc(C(=O)NCc2cccs2)c(N)nc1-c1ncco1 [Ex-132, 3-amino-6-methyl-5-(1,3-oxazol-2-yl)-N-(thiophen-2-ylmethyl)pyrazine-2-carboxamide]",0.357 nM
18,"Cc1nc(C(=O)NCc2ccc(C(C)C)cc2)c(N)nc1-c1ncco1 [Ex-133, 3-amino-6-methyl-N-[4-(1-methylethyl)benzyl]-5-(1,3-oxazol-2-yl)pyrazine-2-carboxamide]",2.59 nM
19,"Cc1nc(C(=O)NCc2ccc(C3CC3)cc2)c(N)nc1-c1ncco1 [Ex-134, 3-amino-N-(4-cyclopropylbenzyl)-6-methyl-5-(1,3-oxazol-2-yl)pyrazine-2-carboxamide]",3.39 nM

# Second part, the compound after the results:
row,Ki,SMILES
1,0.169 nM,"Cc1cccc(CNC(=O)c2nc(C)c(-c3ncco3)nc2N)c1F [Ex-135, 3-amino-N-(2-fluoro-3-methylbenzyl)-6-methyl-5-(1,3-oxazol-2-yl)pyrazine-2-carboxamide]"
2,0.267 nM,"Cc1cc(C)c(CNC(=O)c2nc(C)c(-c3ncco3)nc2N)c(C)c1 [Ex-136, 3-amino-6-methyl-5-(1,3-oxazol-2-yl)-N-(2,4,6-trimethylbenzyl)pyrazine-2-carboxamide]"
3,0.307 nM,"Cc1cc(CNC(=O)c2nc(C)c(-c3ncco3)nc2N)ccc1F [Ex-137, 3-amino-N-(4-fluoro-3-methylbenzyl)-6-methyl-5-(1,3-oxazol-2-yl)pyrazine-2-carboxamide]"
4,0.588 nM,"Cc1nc(C(=O)N[C@H]2CCc3ccccc32)c(N)nc1-c1ncco1 [Ex-138, 3-amino-N-[(1S)-2,3-dihydro-1H-inden-1-yl]-6-methyl-5-(1,3-oxazol-2-yl)pyrazine-2-carboxamide]"
5,3.03 nM,"CCc1ccc(CNC(=O)c2nc(C)c(-c3ncco3)nc2N)cc1 [Ex-139, 3-amino-N-(4-ethylbenzyl)-6-methyl-5-(1,3-oxazol-2-yl)pyrazine-2-carboxamide]"
6,0.225 nM,"Cc1nc(C(=O)N[C@@H]2CCc3ccccc32)c(N)nc1-c1ncco1 [Ex-140, 3-amino-N-[(1R)-2,3-dihydro-1H-inden-1-yl]-6-methyl-5-(1,3-oxazol-2-yl)pyrazine-2-carboxamide]"
7,0.391 nM,"Cc1nc(C(=O)NCc2cccn2C)c(N)nc1-c1ncco1 [Ex-141, 3-amino-6-methyl-N-[(1-methyl-1H-pyrrol-2-yl)methyl]-5-(1,3-oxazol-2-yl)pyrazine-2-carboxamide]"
8,0.704 nM,"Cc1nc(C(=O)NCc2ccc(C)n2C)c(N)nc1-c1ncco1 [Ex-142, 3-amino-N-[(1,5-dimethyl-1H-pyrrol-2-yl)methyl]-6-methyl-5-(1,3-oxazol-2-yl)pyrazine-2-carboxamide]"
9,1.72 nM,"COc1cccc(CNC(=O)c2nc(C)c(-c3ncco3)nc2N)c1 [Ex-143, 3-amino-N-(3-methoxybenzyl)-6-methyl-5-(1,3-oxazol-2-yl)pyrazine-2-carboxamide]"
10,0.382 nM,"COc1ccccc1CNC(=O)c1nc(C)c(-c2ncco2)nc1N [Ex-144, 3-amino-N-(2-methoxybenzyl)-6-methyl-5-(1,3-oxazol-2-yl)pyrazine-2-carboxamide]"
11,0.601 nM,"Cc1nc(C(=O)N[C@H]2COc3ccccc32)c(N)nc1-c1ncco1 [Ex-147, 3-amino-N-[(3R)-2,3-dihydro-1-benzofuran-3-yl]-6-methyl-5-(1,3-oxazol-2-yl)pyrazine-2-carboxamide]"
12,15.8 nM,"COc1ccc(CNC(=O)c2nc(C)c(-c3ncco3)nc2N)cc1 [Ex-148, 3-amino-N-(4-methoxybenzyl)-6-methyl-5-(1,3-oxazol-2-yl)pyrazine-2-carboxamide]"
13,0.855 nM,"Cc1nc(C(=O)NCc2nc3ccccc3s2)c(N)nc1-c1ncco1 [Ex-149, 3-amino-N-(1,3-benzothiazol-2-ylmethyl)-6-methyl-5-(1,3-oxazol-2-yl)pyrazine-2-carboxamide]"
14,4.58 nM,"Cc1nc(C(=O)N2Cc3cncnc3C2)c(N)nc1-c1ncco1 [Ex-151, 3-(5,7-dihydro-6H-pyrrolo[3,4-d]pyrimidin-6-ylcarbonyl)-5-methyl-6-(1,3-oxazol-2-yl)pyrazin-2-amine]"
15,0.141 nM,"Cc1nc(C(=O)NCc2ccccc2O)c(N)nc1-c1ncco1 [Ex-153, 3-amino-N-(2-hydroxybenzyl)-6-methyl-5-(1,3-oxazol-2-yl)pyrazine-2-carboxamide]"
16,0.125 nM,"Cc1ccc(O)c(CNC(=O)c2nc(C)c(-c3ncco3)nc2N)c1 [Ex-154, 3-amino-N-(2-hydroxy-5-methylbenzyl)-6-methyl-5-(1,3-oxazol-2-yl)pyrazine-2-carboxamide]"
17,13.9 nM,"Cc1nc(C(=O)NCc2ccc(O)cc2)c(N)nc1-c1ncco1 [Ex-155, 3-amino-N-(4-hydroxybenzyl)-6-methyl-5-(1,3-oxazol-2-yl)pyrazine-2-carboxamide]"
18,68.9 nM,"Cc1nc(C(=O)N[C@@H]2c3ccccc3C[C@@H]2O)c(N)nc1-c1ncco1 [Ex-156, 3-amino-N-[(1R,2S)-2-hydroxy-2,3-dihydro-1H-inden-1-yl]-6-methyl-5-(1,3-oxazol-2-yl)pyrazine-2-carboxamide]"
19,0.601 nM,"Cc1nc(C(=O)N[C@@H]2COc3ccccc32)c(N)nc1-c1ncco1 [Ex-157, 3-amino-N-[(3S)-2,3-dihydro-1-benzofuran-3-yl]-6-methyl-5-(1,3-oxazol-2-yl)pyrazine-2-carboxamide]"
20,1.97 nM,"Cc1nc(C(=O)NCc2cccc(O)c2)c(N)nc1-c1ncco1 [Ex-158, 3-amino-N-(3-hydroxybenzyl)-6-methyl-5-(1,3-oxazol-2-yl)pyrazine-2-carboxamide]"
21,1.2 nM,"Cc1nc(C(=O)N[C@@H]2c3ccccc3C[C@H]2O)c(N)nc1-c1ncco1 [Ex-159, 3-amino-N-[(1R,2R)-2-hydroxy-2,3-dihydro-1H-inden-1-yl]-6-methyl-5-(1,3-oxazol-2-yl)pyrazine-2-carboxamide]"
22,264 nM,"Cc1nc(C(=O)NCc2nnc3n2CCC3)c(N)nc1-c1ncco1 [Ex-160, 3-amino-N-(6,7-dihydro-5H-pyrrolo[2,1-c][1,2,4]triazol-3-ylmethyl)-6-methyl-5-(1,3-oxazol-2-yl)pyrazine-2-carboxamide]"

# — US10472347B2, “Aminopyrazine compounds with A2A antagonist properties” (Merck Sharp & Dohme Corp., priority 2014, dated 2019)
